Counter-ions that a name gives are not always drawn.
Assays:
[1] = system: stress-induced ulcer formation; assay: Inhibitory action on stress-induced ulcer formation; assay type: in vivo, Sprague-Dawley strain male rats; settings: oral, rats; for Number of Ulcers/Stomach, 3 mm or larger / Number of Ulcers/Stomach, up to 3 mm: 10 minutes before stress; for Ulcer Index (mean value ± standard deviation): Ulcer Index = a + b/10, Control 6.1 ± 2.3; for inhibition in vivo at 100 mg/kg: Rattus norvegicus, 16 h, stress-induced ulcer, read-out: Percent Inhibition
Experimental: Action on stress-induced ulcer formation
Sprague-Dawley strain male rats weighing 200-250 g were deprived of food for 24 hours, and then laid down on their backs on a screen and fixed by fastening their limbs with a strand. The fixed rats were submerged in water bath to the depth of ensiform process with their hind legs dipped first. Sixteen hours after the submergence, the rats were brought out from the bath and their stomachs were taken out. After light fixation with a 1% formalin aqueous solution, the stomach of each animal was cut open along their greater curvature and gastric mucosa was observed through a dissecting microscope. The ulcer was evaluated on an ulcer index calculated from the following equation: […]
wherein a is the number of big ulcers more than 3 mm in diameter and b is the number of small ulcers up to 3 mm in diameter.
A test compound was orally administered as a suspension in a 1% gum arabic aqueous solution, 10 minutes before exposure to stress.

[2] = Acute toxicity in mice; settings: mouse, in vivo
Experimental: Acute toxicity of 1-(3'-dimethylaminopropoxy)-2,4-bis(2"-methylbenzamido)-benzene, 1-(3'-dimethylaminopropoxy)-2,4-bis(3"-methylbenzamido)-benzene, 1-[N-(3-dimethylaminopropyl)-carbamoyl]-2,4-bis(2"-methylbenzamido)-benzene and 1-[N-(3'-dimethylaminopropyl)-carbamoyl]-2,4-bis(3"-methylbenzamido)-benzene were observed by the use of ddY strain male mice (5 weeks old) which were administered orally or intravenously with one of the compounds.
In the case of intravenous administration, the hydrochloride of test compound was dissolved in a physiological saline solution and administered by injecting into a vein of the tail. LD50 was determined by the "Up and Down" method.
When the administration was effected orally, the test compound was suspended in a 1% gum arabic aqueous solution and the suspension was administered orally by gavage. LD50 was determined by the Litchfield and Wilcoxon method or Miller and Tainter method based on death rate of each group of […] 10 days after the administration of the compound.

[3] = system: pylorus ligature ulcer formation; assay: Protective action on pylorus ligature ulcer formation; assay type: in vivo, Sprague-Dawley strain male rats; settings: in the duodenum, rats; for Percent Death Rate / Percent Perforating Ulcers: 16 hours after pylorus ligature
Experimental: Protective Action on pylorus ligature ulcer formation
The pylorus of Sprague-Dawley strain male rats weighing 150-200 g that had abstained from food, but not water for 48 hours was ligatured under ether anethsia. Each rat was allowed to stand individually in a cage for 16 hours without food and water. At the end of this term, the rats were sacrificed by an overdose of diethyl ether. The stomach was taken out of each animal and the gastric mucosa was observed by the use of a dissecting microscope.
Ulcers observed in the gastric mucosa were evaluated on a scale of from 0 to 5 defined as follows.
0: No lesion was observed.
1: Hemorrhage and/or erosion were observed.
2: One to five small ulcers less than 3 mm in diameter were observed.
3: Six or more small ulcers and/or a large ulcer more than 3 mm in diameter were observed.
4: Two or more large ulcers were observed.
5: At least one perforating ulcer was observed.
A test compound was administered as an aqueous solution in an equivalent molar of hydrochloric acid in the duodenum immediately after the pylorus ligature.

[4] = iv, hydrochloride in physiological saline, Up and Down Method
[5] = oral, 1% gum arabic suspension, 10 days, Litchfield and Wilcoxon Method

SMILES	Number of Ulcers/Stomach, 3 mm or larger ([1]; 100 mg/kg)	Number of Ulcers/Stomach, up to 3 mm ([1]; 100 mg/kg)	Ulcer Index (mean value ± standard deviation) ([1]; 100 mg/kg)	inhibition in vivo at 100 mg/kg ([1]; 100 mg/kg)	other results
CCN(CC)CCCNC(=O)c1ccc(NC(=O)c2cccc(C)c2)cc1NC(=O)c1cccc(C)c1 [1-[N(3'-diethylaminopropyl)-carbamoyl]-2,4-bis(3"-methylbenzamido)-benzene]	0	12	1.0 ± 0.6	85%	–
CCN(CC)CCCOc1ccc(NC(=O)c2ccc(C)cc2)cc1NC(=O)c1ccc(C)cc1 [1-(3'-diethylaminopropoxy)-2,4-bis(4"-methylbenzamido)-benzene]	1.3	17	3.0 ± 0.8	52%	–
Cc1ccc(C(=O)Nc2ccc(C(=O)NCCCN(C)C)c(NC(=O)c3ccc(C)cc3)c2)cc1 [1-[N-(3'-dimethylaminopropyl)-carbamoyl]-2,4-bis(4"-methylbenzamido)-benzene]	1.0	19	3.0 ± 1.4	60%	–
Cc1ccccc1C(=O)Nc1ccc(C(=O)NCCCN(C)C)c(NC(=O)c2ccccc2C)c1 [1-[N-(3'-dimethylaminopropyl)-carbamoyl]-2,4-bis(2"-methylbenzamido)-benzene]	–	23	–	–	LD50 [2, 4]: 111 mg/kg; Percent Death Rate ([3]; 200 mg/kg): 0%; Percent Perforating Ulcers ([3]; 200 mg/kg): 0%
CCN(CC)CCCCOc1ccc(NC(=O)c2ccccc2OC)cc1NC(=O)c1ccccc1OC [1-(4'-diethylaminobutoxy)-2,4-bis(2"methoxybenzamido)-benzene]	0.8	11	1.8 ± 1.5	71%	–
CCN(CC)CCNC(=O)c1cc(NC(=O)c2ccccc2OC)cc(NC(=O)c2ccccc2OC)c1 [1-[N-(2'-diethylaminoethyl)-carbamoyl]-3,5-bis(2"-methoxybenzamido)-benzene hydrochloride]	3.0	13	4.3 ± 2.2	33%	–
CCN(CC)CCNC(=O)c1ccc(NC(=O)c2ccc(C)cc2)cc1NC(=O)c1ccc(C)cc1 [1-[N-(2'-diethylaminoethyl)-carbamoyl]-2,4-bis(4"-methylbenzamido)-benzene]	1.4	26	4.0 ± 1.4	40%	–
CCN(CC)CCNC(=O)c1ccc(NC(=O)c2ccccc2OC)cc1NC(=O)c1ccccc1OC [1-[N-(2'-diethylaminoethyl)-carbamoyl]-2,4-bis(2"-methoxybenzamido)-benzene hydrochloride]	1.1	12	3.8 ± 2.3	40%	–
Cc1cccc(C(=O)Nc2ccc(OCCCN(C)C)c(NC(=O)c3cccc(C)c3)c2)c1 [1-(3'-dimethylaminopropoxy)-2,4-bis(3"-methylbenzamido)-benzene]	–	11	–	–	Number of Ulcers/Stomach, up to 3 mm ([1]; 30 mg/kg): 21; Number of Ulcers/Stomach, up to 3 mm ([1]; 45 mg/kg): 9; Number of Ulcers/Stomach, up to 3 mm ([1]; 67 mg/kg): 7; LD50 [2, 4]: 38 mg/kg; LD50 [2, 5]: 4700 mg/kg; Percent Death Rate ([3]; 50 mg/kg): 33%; Percent Perforating Ulcers ([3]; 50 mg/kg): 50%; Percent Death Rate ([3]; 100 mg/kg): 0%; Percent Perforating Ulcers ([3]; 100 mg/kg): 0%; Percent Death Rate ([3]; 200 mg/kg): 0%; Percent Perforating Ulcers ([3]; 200 mg/kg): 0%; Percent Inhibition ([3]; 200 mg/kg, 16 hours, ulcer index vs control): 75%
Cc1cccc(C(=O)Nc2ccc(C(=O)NCCCN(C)C)c(NC(=O)c3cccc(C)c3)c2)c1 [1-[N-(3'-dimethylaminopropyl)-carbamoyl]-2,4-bis(3"-methylbenzamido)-benzene]	–	17	–	–	LD50 [2, 4]: 88 mg/kg; LD50 ([2]; oral, 1% gum arabic suspension, 10 days, Miller and Tainter Method): 5100 mg/kg; Percent Death Rate ([3]; 200 mg/kg): 0%; Percent Perforating Ulcers ([3]; 200 mg/kg): 0%
Cc1cccc(C(=O)Nc2ccc(OCCCCN(C)C)c(NC(=O)c3cccc(C)c3)c2)c1 [1-(4'-dimethylaminobutoxy)-2,4-bis(3"-methylbenzamido)-benzene]	0.5	8	1.2 ± 1.6	82%	–
CCN(CC)CCCOc1ccc(NC(=O)c2ccccc2C)cc1NC(=O)c1ccccc1C [1-(3'-diethylaminopropoxy)-2,4-bis(2"-methylbenzamido)-benzene]	0	6	0.5 ± 1.0	92%	–
Cc1ccccc1C(=O)Nc1ccc(OCCCN(C)C)c(NC(=O)c2ccccc2C)c1 [1-(3'-dimethylaminopropoxy)-2,4-bis(2"-methylbenzamido)-benzene]	–	4	–	–	Number of Ulcers/Stomach, up to 3 mm ([1]; 30 mg/kg): 23; Number of Ulcers/Stomach, up to 3 mm ([1]; 45 mg/kg): 17; Number of Ulcers/Stomach, up to 3 mm ([1]; 67 mg/kg): 9; LD50 [2, 4]: 42 mg/kg; LD50 [2, 5]: 2520 mg/kg; Percent Death Rate ([3]; 50 mg/kg): 20%; Percent Perforating Ulcers ([3]; 50 mg/kg): 20%; Percent Death Rate ([3]; 100 mg/kg): 0%; Percent Perforating Ulcers ([3]; 100 mg/kg): 0%; Percent Death Rate ([3]; 200 mg/kg): 0%; Percent Perforating Ulcers ([3]; 200 mg/kg): 0%
CCN(CC)CCNC(=O)c1ccc(NC(=O)c2ccccc2C)cc1NC(=O)c1ccccc1C [1-[N-(2'-diethylaminoethyl)-carbamoyl]-2,4-bis(2"-methylbenzamido)-benzene]	1.2	29	4.2 ± 0.4	38%	–
COc1ccccc1C(=O)Nc1ccc(OCCCN(C)C)c(NC(=O)c2ccccc2OC)c1 [1-(3'-dimethylaminopropoxy)-2,4-bis(2"-methoxybenzamido)-benzene trihydrochloride]	0.5	13	1.8 ± 2.4	71%	–
CCN(CC)CCCOc1ccc(NC(=O)c2ccccc2OC)cc1NC(=O)c1ccccc1OC [1-(3'-diethylaminopropoxy)-2,4-bis(2"-methoxybenzamido)-benzene]	0.8	8	1.5 ± 2.4	76%	–
CCN(CC)CCNC(=O)c1ccc(NC(=O)c2cccc(C)c2)cc1NC(=O)c1cccc(C)c1 [1-[N-(2'-diethylaminoethyl)-carbamoyl]-2,4-bis(3"-methylbenzamido)-benzene]	1.3	27	4.0 ± 2.6	46%	–
CCN(CC)CCCNC(=O)c1ccc(NC(=O)c2ccccc2OC)cc1NC(=O)c1ccccc1OC [1-[N-(3'-diethylaminopropyl)-carbamoyl]-2,4-bis(2"-methoxybenzamido)-benzene]	0	11	1.3 ± 0.5	80%	–
Cc1ccccc1C(=O)Nc1ccc(OCCCCN(C)C)c(NC(=O)c2ccccc2C)c1 [1-(4'-dimethylaminobutoxy)-2,4-bis(2"-methylbenzamido)-benzene]	0.2	6	1.0 ± 0.6	85%	–
CCN(CC)CCCOc1ccc(NC(=O)c2cccc(C)c2)cc1NC(=O)c1cccc(C)c1 [1-(3'-diethylaminopropoxy)-2,4-bis(3"-methylbenzamido)-benzene]	0.3	6	0.8 ± 1.0	87%	–

Reference: US4058523A, “Bis(benzamido)-benzene derivatives” (Chugai Seiyaku Kabushiki Kaisha, priority 1974, dated 1977)
